In patent publication US20190170731A1, “METHOD TO MEASURE RELATIVE UTILIZATION OF AEROBIC GLYCOLYSIS BY POSITIONAL ISOTOPIC DISCRIMINATION” (priority 2016, published 2019):

How the values were obtained:
Type in all cases: cell-based
MDA-MB-231 cells = assay: [1-13C]glucose labeling and LC-MS measurement of relative glycolysis rate; conditions: 10 μM KU-55933, MDA-MB-231 cells, 10 mM D-[1-13C]-glucose; samples at 1, 3 and 6 hours of labeling (as well as 9 hours, p<0.05)
Description: FIGS. 7A-B. A) Sub-confluent MDA-MB-231 cells were serum-starved overnight. Cells were washed with PBS and were then pre-treated with 10 μM KU-55933 (Halaby et al., 2008) for 30 minutes in the glucose- and serum-free medium. Fluorescently-tagged 2-NBDG (30 μg/ml) was then added for 30 minutes. Cells were treated with 100 nM insulin for another 45 minutes. Glucose Uptake was then measured following the manufacturer's instructions (Cayman Chemical). B) MDA-MB-231 cells were cultured in DMEM containing 10% FBS. After reaching […] confluent, cells were serum-starved overnight. Cells were then washed with PBS and incubated in serum- and glucose/pyruvate-free DMEM for 90 minutes. The labeling was initiated after replacing the medium with fresh serum- and glucose/pyruvate-free DMEM supplemented with 10 mM D-[1-^13C]-glucose ±10 μM KU-55933. […] 40 μL of medium was taken and diluted with 160 μL of methanol to precipitate the proteins. For LC-MS analysis, 2 μL of the supernatant were injected and analyzed with the Q-Exactive mass spec. The bar graph represents the average relative glycolysis rate ±SEM from 3 individual experiments (*p<0.05). […] These breast cancer cells were grown in DMEM supplemented with antibiotics and 10% fetal bovine serum. […] The relative rate of glycolysis for each cancer cell line was measured by the incorporation of [1-^13C]glucose into [3-^13C]lactate. […]

MDA-MB-231 = assay: 2-NBDG glucose uptake assay; conditions: MDA-MB-231, 100 nM insulin for 45 minutes, 30 μg/mL 2-NBDG
Description: (§1) FIG. 2. […] Sub-confluent cells were serum-starved overnight. Cells were then washed with PBS and cell culture medium was replaced with glucose- and serum-free medium. Fluorescently-tagged 2-NBDG (Cayman Chemical) was then added at a concentration of 30 μg/mL for 30 minutes. After addition of 2-NBDG, cells were treated with 100 nM insulin for another 45 minutes. Glucose uptake was then measured as described hereinbelow. The graph represents the averages of 2-NBDG glucose uptake ±SEM from 3 individual experiments (p<0.05).
(§2) Glucose uptake was analyzed using a 2-NBDG (2-deoxy-2-[(7-nitro-2,1,3-benzoxadiazol-4-yl)amino]-D-glucose, a fluorescently labeled 2-deoxyglucose) glucose uptake kit from Cayman Chemical. Briefly, cells were plated at 200,000 cells/well in a 24-well plate and allowed to grow to sub-confluency. Cells were then serum starved overnight. The next morning, cells were incubated in serum- and glucose-free medium for 30 minutes. Cells were then incubated with 30 μg/mL 2-NBDG for another 30 minutes. After incubation, cells were treated with 100 nM insulin for 45 minutes. Cells were then transferred to a clear-bottom black 96 cell plate. The plate was subjected to centrifugation at 400×g for 5 minutes. […] Signal intensity was measured with a Synergy 2 (BioTek) microplate reader at excitation/emission=485/535 nm.

MDA-MB-453 = assay: 2-NBDG glucose uptake assay; conditions: MDA-MB-453, 100 nM insulin for 45 minutes, 30 μg/mL 2-NBDG
Description: as §1, §2

## O=c1cc(-c2cccc3c2Sc2ccccc2S3)oc(N2CCOCC2)c1 [KU-55933]
MDA-MB-231 cells
  relative glycolysis rate ([1-13C]glucose to [3-13C]lactate): significant inhibition of glycolysis rate

## insulin
MDA-MB-231
  glucose uptake (2-NBDG) in response to insulin stimulation: enhanced glucose uptake
MDA-MB-453
  glucose uptake (2-NBDG) in response to insulin stimulation: enhanced glucose uptake
